Results taken from PMC7962117, “The Complex Structure of Protein AaLpxC from Aquifex aeolicus with ACHN-975 Molecule Suggests an Inhibitory Mechanism at Atomic-Level against Gram-Negative Bacteria” (Molecules, 2021).
Residue numbers refer to the chain shown, from its start.

Legend:
Assay in all cases: isothermal titration calorimetry
Format in all cases: binding
AaLpxC [1] = target: T1, AaLpxC (Aquifex aeolicus, UniProt O67648, S59A)
T1 construct: gene lpxC; codon-optimised gene in pET-21a (NdeI/XhoI), E. coli BL21(DE3); approx. 32 kDa; Zn2+ enzyme; last five residues LTRLE disordered in crystal
T1 sequence (O67648 1-271 S59A): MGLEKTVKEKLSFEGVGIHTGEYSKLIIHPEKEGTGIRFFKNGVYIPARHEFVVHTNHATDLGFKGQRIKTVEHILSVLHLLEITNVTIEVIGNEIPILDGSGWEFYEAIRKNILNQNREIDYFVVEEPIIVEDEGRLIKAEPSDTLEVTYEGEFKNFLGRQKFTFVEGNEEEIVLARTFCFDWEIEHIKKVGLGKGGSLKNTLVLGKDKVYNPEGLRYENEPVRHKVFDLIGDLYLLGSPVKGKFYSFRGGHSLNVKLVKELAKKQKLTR
Excerpt: (§1) isothermal titration calorimetry on AaLpxC

AaLpxC [2] = target: T2, AaLpxC (Aquifex aeolicus, UniProt O67648, E185A)
T2 construct: gene lpxC; codon-optimised gene in pET-21a (NdeI/XhoI), E. coli BL21(DE3); approx. 32 kDa; Zn2+ enzyme; last five residues LTRLE disordered in crystal
T2 sequence (O67648 1-271 E185A): T1 sequence (O67648 1-271 S59A) with A59S, E185A
Excerpt: as §1

AaLpxC [3] = target: T3, AaLpxC (Aquifex aeolicus, UniProt O67648, K227A)
T3 construct: gene lpxC; codon-optimised gene in pET-21a (NdeI/XhoI), E. coli BL21(DE3); approx. 32 kDa; Zn2+ enzyme; last five residues LTRLE disordered in crystal
T3 sequence (O67648 1-271 K227A): T1 sequence (O67648 1-271 S59A) with A59S, K227A
Excerpt: as §1

AaLpxC [4] = target: T4, AaLpxC (Aquifex aeolicus, UniProt O67648, T203A)
T4 construct: gene lpxC; codon-optimised gene in pET-21a (NdeI/XhoI), E. coli BL21(DE3); approx. 32 kDa; Zn2+ enzyme; last five residues LTRLE disordered in crystal
T4 sequence (O67648 1-271 T203A): T1 sequence (O67648 1-271 S59A) with A59S, T203A
Excerpt: as §1

AaLpxC [5] = target: T5, AaLpxC (Aquifex aeolicus, UniProt O67648, H19A)
T5 construct: gene lpxC; codon-optimised gene in pET-21a (NdeI/XhoI), E. coli BL21(DE3); approx. 32 kDa; Zn2+ enzyme; last five residues LTRLE disordered in crystal
T5 sequence (O67648 1-271 H19A): T1 sequence (O67648 1-271 S59A) with H19A, A59S
Excerpt: as §1

AaLpxC [6] = target: T6, AaLpxC (Aquifex aeolicus, UniProt O67648)
T6 construct: gene lpxC; codon-optimised gene in pET-21a (NdeI/XhoI), E. coli BL21(DE3); approx. 32 kDa; Zn2+ enzyme; last five residues LTRLE disordered in crystal
T6 sequence (O67648 1-271): T1 sequence (O67648 1-271 S59A) with A59S
Excerpt: as §1

AaLpxC [7] = target: T7, AaLpxC (Aquifex aeolicus, UniProt O67648, I18A)
T7 construct: gene lpxC; codon-optimised gene in pET-21a (NdeI/XhoI), E. coli BL21(DE3); approx. 32 kDa; Zn2+ enzyme; last five residues LTRLE disordered in crystal
T7 sequence (O67648 1-271 I18A): T1 sequence (O67648 1-271 S59A) with I18A, A59S
Excerpt: as §1

AaLpxC [8] = target: T8, AaLpxC (Aquifex aeolicus, UniProt O67648, E73A)
T8 construct: gene lpxC; codon-optimised gene in pET-21a (NdeI/XhoI), E. coli BL21(DE3); approx. 32 kDa; Zn2+ enzyme; last five residues LTRLE disordered in crystal
T8 sequence (O67648 1-271 E73A): T1 sequence (O67648 1-271 S59A) with A59S, E73A
Excerpt: as §1

AaLpxC [9] = target: T9, AaLpxC (Aquifex aeolicus, UniProt O67648, F180A)
T9 construct: gene lpxC; codon-optimised gene in pET-21a (NdeI/XhoI), E. coli BL21(DE3); approx. 32 kDa; Zn2+ enzyme; last five residues LTRLE disordered in crystal
T9 sequence (O67648 1-271 F180A): T1 sequence (O67648 1-271 S59A) with A59S, F180A
Excerpt: as §1

AaLpxC [10] = target: T10, AaLpxC (Aquifex aeolicus, UniProt O67648, I186A)
T10 construct: gene lpxC; codon-optimised gene in pET-21a (NdeI/XhoI), E. coli BL21(DE3); approx. 32 kDa; Zn2+ enzyme; last five residues LTRLE disordered in crystal
T10 sequence (O67648 1-271 I186A): T1 sequence (O67648 1-271 S59A) with A59S, I186A
Excerpt: as §1

AaLpxC [11] = target: T11, AaLpxC (Aquifex aeolicus, UniProt O67648, I189A)
T11 construct: gene lpxC; codon-optimised gene in pET-21a (NdeI/XhoI), E. coli BL21(DE3); approx. 32 kDa; Zn2+ enzyme; last five residues LTRLE disordered in crystal
T11 sequence (O67648 1-271 I189A): T1 sequence (O67648 1-271 S59A) with A59S, I189A
Excerpt: as §1

CC(C)(N)[C@H](NC(=O)c1ccc(C#CC#C[C@@H]2C[C@H]2CO)cc1)C(=O)NO [ACHN-975]
Kd (AaLpxC [1]): 400 ± 100 nM | Kd (AaLpxC [2]): 60 ± 30 nM | Kd (AaLpxC [3]): 100 ± 80 nM | Kd (AaLpxC [4]): 2000 ± 1400 nM | Kd (AaLpxC [5]): 400 ± 200 nM | Kd (AaLpxC [6]): 400 ± 100 nM | Kd (AaLpxC [7]): 400 ± 300 nM | Kd (AaLpxC [8]): 70 ± 50 nM | Kd (AaLpxC [9]): 90 ± 70 nM | Kd (AaLpxC [10]): 200 ± 90 nM | Kd (AaLpxC [11]): 100 ± 90 nM
